In the assay the target is T1, ΔF508-CFTR (Homo sapiens, UniProt P13569, DEL508-508).
T1 construct: Primary lung epithelial cells homozygous for the Cystic Fibrosis-causing ΔF508 mutation were differentiated for a minimum of 4 weeks; endogenous in cells; host or cells: primary lung (bronchial) epithelial cells (hBE) homozygous for ΔF508, differentiated at an air-liquid interface
In words: hBE equivalent current (Ieq) assay. The class given is cell-based. The conditions noted are these: 24 h, relative to a CFTR amplifier at 3 uM, AUC of equivalent chloride current, primary lung epithelial cells homozygous for ΔF508; for Activity 3 μM: compound at 3 μM; for Activity 10 μM: compound at 10 μM. On the procedure: ii. hBE Equivalent Current (Ieq) Assay
Primary lung epithelial cells homozygous for the Cystic Fibrosis-causing ΔF508 mutation were differentiated for a minimum of 4 weeks in an air-liquid interface on Costar 24 well HTS filter plates prior to the equivalent current (Ieq) measurements. Cells were apically mucus-washed for 30 minutes 24 h prior to treatment with compounds. The basolateral media was removed and replaced with media containing the compound of interest diluted to its final concentration from DMSO stocks. Treated cells were incubated at 37° C. and 5% CO2 for 24 hours. At the end of the treatment period, the media was changed to the Ieq experimental solution for 2 hours before the experiment and plates are maintained in a CO2-free incubator during this period. The plates containing the cells were then placed in pre-warmed heating blocks at 36° C.±0.5 for 15 minutes before measurements are taken. The transepithelial voltage (VT) and conductance (GT) were measured using a custom 24 channel current clamp (TECC-24) with 24 well electrode manifold. The Ieq assay measurements were made following additions with standardized time periods:
1. The baseline VT and GT values were measured for approximately 20 minutes.
2. Benzamil was added to block ENaC for 15 minutes.
3. Forskolin plus VX-770 were added to maximally activate ΔF508-CFTR for 27 minutes.
4. Bumetanide was added to inhibit the NaK2Cl cotransporter and shut-off secretion of chloride.
The activity data captured was the area under the curve (AUC) for the traces of the equivalent chloride current. The AUC was collected from the time of the forskolin/VX-770 addition until the inhibition by bumetanide addition. Correction in response to compound treatment was scored as the increase in the AUC for compound-treated samples over that of vehicle-treated samples.
The results are shown below in Table 1. + indicates activity <150% of a CFTR amplifier with compound at concentration shown and amplifier at 3 uM; ++ indicates activity >150% of a CFTR amplifier with compound at concentration shown and amplifier at 3 uM.

T1 sequence (P13569 with tags, fused parts or gaps DEL508-508): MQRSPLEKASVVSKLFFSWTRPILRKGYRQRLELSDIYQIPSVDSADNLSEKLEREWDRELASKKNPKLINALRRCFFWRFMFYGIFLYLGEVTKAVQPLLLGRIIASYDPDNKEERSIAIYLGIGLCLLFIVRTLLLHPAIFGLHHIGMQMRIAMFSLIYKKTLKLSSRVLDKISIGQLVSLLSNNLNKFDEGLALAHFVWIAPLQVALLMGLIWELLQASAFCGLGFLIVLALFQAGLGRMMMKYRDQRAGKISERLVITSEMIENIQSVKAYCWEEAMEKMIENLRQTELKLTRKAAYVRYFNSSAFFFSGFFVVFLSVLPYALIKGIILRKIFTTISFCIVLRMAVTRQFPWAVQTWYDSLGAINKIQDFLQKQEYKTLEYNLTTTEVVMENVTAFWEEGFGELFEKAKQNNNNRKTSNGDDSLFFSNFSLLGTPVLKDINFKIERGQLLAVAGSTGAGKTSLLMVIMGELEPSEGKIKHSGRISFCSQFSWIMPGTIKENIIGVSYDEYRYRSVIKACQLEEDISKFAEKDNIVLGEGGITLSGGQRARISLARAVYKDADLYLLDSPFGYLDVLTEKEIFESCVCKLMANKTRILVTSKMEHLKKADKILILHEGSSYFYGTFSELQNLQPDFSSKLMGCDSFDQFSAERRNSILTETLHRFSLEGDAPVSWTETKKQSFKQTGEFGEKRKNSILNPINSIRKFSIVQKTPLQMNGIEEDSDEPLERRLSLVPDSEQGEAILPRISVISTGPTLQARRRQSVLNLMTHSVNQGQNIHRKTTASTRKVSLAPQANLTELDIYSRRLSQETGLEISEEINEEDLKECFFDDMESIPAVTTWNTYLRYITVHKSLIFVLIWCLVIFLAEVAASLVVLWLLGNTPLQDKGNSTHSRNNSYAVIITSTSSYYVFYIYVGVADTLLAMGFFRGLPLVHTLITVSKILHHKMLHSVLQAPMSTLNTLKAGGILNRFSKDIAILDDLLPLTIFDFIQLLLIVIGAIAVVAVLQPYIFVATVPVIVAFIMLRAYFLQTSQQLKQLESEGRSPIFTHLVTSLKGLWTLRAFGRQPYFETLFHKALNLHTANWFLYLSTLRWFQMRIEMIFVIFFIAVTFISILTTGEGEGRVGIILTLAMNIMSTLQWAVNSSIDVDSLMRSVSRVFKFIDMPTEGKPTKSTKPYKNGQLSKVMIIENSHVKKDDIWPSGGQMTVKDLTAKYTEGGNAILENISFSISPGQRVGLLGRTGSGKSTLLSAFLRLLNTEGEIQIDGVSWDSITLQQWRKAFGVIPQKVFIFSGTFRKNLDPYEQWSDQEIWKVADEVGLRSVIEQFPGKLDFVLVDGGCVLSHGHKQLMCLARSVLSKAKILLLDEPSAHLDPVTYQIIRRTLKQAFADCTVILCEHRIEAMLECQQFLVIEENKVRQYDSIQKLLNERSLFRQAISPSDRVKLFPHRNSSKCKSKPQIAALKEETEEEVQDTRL

For `COc1cncc(-c2ccc(=O)n(C(C)C(=O)Nc3ccc(C(F)(F)F)cc3)n2)c1` (stereo not shown) [Compound 20, 2-(3-(5-Methoxypyridin-3-yl)-6-oxopyridazin-1(6H)-yl)-N-(4-(trifluoromethyl)phenyl)propanamide], the “Activity 3 μM” value is “++ (activity >150% of a CFTR amplifier with compound at concentration shown and amplifier at 3 uM)”; the “Activity 10 μM” value is “++ (activity >150% of a CFTR amplifier with compound at concentration shown and amplifier at 3 uM)”.

In the case of `COc1ccnc(-c2ccc(=O)n(C(C)C(=O)Nc3ccc(C(F)(F)F)cc3)n2)c1` (stereo not shown) [Compound 21, 2-(3-(4-Methoxypyridin-2-yl)-6-oxopyridazin-1(6H)-yl)-N-(4-(trifluoromethyl)phenyl)propanamide], the “Activity 10 μM” value is “+ (activity <150% of a CFTR amplifier with compound at concentration shown and amplifier at 3 uM)”. With `COc1cccc(-c2ccc(=O)n(C(C)C(=O)Nc3ccc(C(F)(F)F)cc3)n2)n1` (stereo not shown) [Compound 22, 2-(3-(6-Methoxypyridin-2-yl)-6-oxopyridazin-1(6H)-yl)-N-(4-(trifluoromethyl)phenyl)propanamide], the “Activity 3 μM” value was “++ (activity >150% of a CFTR amplifier with compound at concentration shown and amplifier at 3 uM)”; the “Activity 10 μM” value was “+ (activity <150% of a CFTR amplifier with compound at concentration shown and amplifier at 3 uM)”. On to `CC(C(=O)Nc1ccc(C(F)(F)F)cc1)n1nc(-c2cc(Cl)cs2)ccc1=O` (stereo not shown) [Compound 23, 2-(3-(4-Chlorothiophen-2-yl)-6-oxopyridazin-1(6H)-yl)-N-(4-(trifluoromethyl)phenyl)propanamide], for which the “Activity 10 μM” value was “++ (activity >150% of a CFTR amplifier with compound at concentration shown and amplifier at 3 uM)”. The same measure, in the same setting: the same measure for `CC(C(=O)Nc1ccc(C(F)(F)F)cc1)n1nc(-c2ccsc2Cl)ccc1=O` (stereo not shown) [Compound 24, 2-(3-(2-Chlorothiophen-3-yl)-6-oxopyridazin-1(6H)-yl)-N-(4-(trifluoromethyl)phenyl)propanamide]: “++ (activity >150% of a CFTR amplifier with compound at concentration shown and amplifier at 3 uM)”. As for `CC(C(=O)Nc1ccc(C(F)(F)F)cc1)n1nc(-c2cc(Cl)sc2Cl)ccc1=O` (stereo not shown) [Compound 25, 2-(3-(2,5-Dichlorothiophen-3-yl)-6-oxopyridazin-1(6H)-yl)-N-(4-(trifluoromethyl)phenyl)propanamide], the “Activity 10 μM” value was “+ (activity <150% of a CFTR amplifier with compound at concentration shown and amplifier at 3 uM)”. For the compound `CC(C(=O)Nc1ccc(C(F)(F)F)cc1)n1nc(-c2csc(Cl)n2)ccc1=O` (stereo not shown) [Compound 26, 2-[3-(2-Chloro-1,3-thiazol-4-yl)-6-oxo-1,6-dihydropyridazin-1-yl]-N-[4-(trifluoromethyl)phenyl]propanamide], the “Activity 10 μM” value is “+ (activity <150% of a CFTR amplifier with compound at concentration shown and amplifier at 3 uM)”. The same measure, in the same setting: to `CC(C(=O)Nc1ccc(C(F)(F)F)cc1)n1nc(-c2cnc(Cl)s2)ccc1=O` (stereo not shown) [Compound 27, 2-[3-(2-Chloro-1,3-thiazol-5-yl)-6-oxo-1,6-dihydropyridazin-1-yl]-N-[4-(trifluoromethyl)phenyl]propanamide] belongs “+ (activity <150% of a CFTR amplifier with compound at concentration shown and amplifier at 3 uM)”.

These data come from patent publication US20190248779A1, “COMPOUNDS, COMPOSITIONS, AND METHODS FOR INCREASING CFTR ACTIVITY” (Proteostasis Therapeutics, Inc., priority 2016, published 2019).
